Data taken from article PMC10054240, “New Inhibitors of Respiratory Syncytial Virus (RSV) Replication Based on Monoterpene-Substituted Arylcoumarins” (Molecules, 2023).
“And” between values parts separate entries of the source, which are not always exact repeats. Equal values may be shown once. Read-outs that look alike come from different tables or passages of the source.

How the values were obtained:
[1] = Cytotoxicity on non-infected HEp-2 cells, MTT assay; assay type: cell-based; settings: human, non-infected HEp-2 cells, CC50 (50% cytotoxic concentration), MTT, 24 h
[2] = system: RSV A strain A2; test: Antiviral activity against RSV A strain A2 in HEp-2 cells (ELISA virus titer); assay type: cell-based, respiratory syncytial virus; settings: for IC50: HEp-2, RSV A, read-out: pIC50 (-lg[IC50]) (converted); for IC50 / pIC50 (-lg[IC50]): from Table 1 values; for pIC50 (-lg[IC50]): RSV A
[3] = system: HEp-2 cells; test: Cytotoxicity on non-infected HEp-2 cells, MTT assay; assay type: cell-based; settings: for CC50: read-out: CC50 (50% cytotoxic concentration), MTT, 24 h
[4] = human respiratory syncytial virus
[5] = human respiratory syncytial virus, HEp-2, read-out: EC50 (50% effective concentration)
[6] = read-out: EC50 (50% effective concentration)
[7] = human respiratory syncytial virus, read-out: EC50 (50% effective concentration), RSV A strain A2, HEp-2 cells

Compound | CC50 at 24 h [1] [µM] | antiviral activity against RSV A (in words) [2] | IC50 [2, 4] [µM] | EC50 [2, 5] [µM] | CC50 [3] [µM] | SI (selective index) [2] | pIC50 (-lg[IC50]) [2] | EC50 [2, 6] [µM] | EC50 ([2]; human respiratory syncytial virus, HEp-2, read-out: EC50 (50% effective concentration), RSV A strain A2, HEp-2 cells) [µM] | EC50 [2, 7] [µM] | cytotoxicity (in words) [3]
CC(C)=CCC/C(C)=C/COc1ccc2c(-c3ccccc3)cc(=O)oc2c1 [Compound 14a] | 805 ± 97.6 | moderate antiviral activity | 67.6 | 67.3 ± 9.1 | – | – | – | – | – | – | –
CC1(C)C2CC=C(COc3ccc4c(-c5ccccc5)cc(=O)oc4c3)C1C2 (centres unmarked) [Compound 14c] | – | not active | – | – | 813 ± 32.4 | 3.5 | 3.63 | 234 ± 27.1 | – | – | –
CC1(C)C2CC=C(CCOc3ccc4c(-c5ccccc5)cc(=O)oc4c3)C1C2 (centres unmarked) [Compound 14d] | 657 ± 20.4 | – | 83.2 | 82.5 ± 10.3 | – | 7.9 | – | – | – | – | –
CC1(C)[C@H]2CC=C(CCCCOc3ccc4c(-c5ccccc5)cc(=O)oc4c3)[C@@H]1C2 [Compound 14f, 7-(4-((1R,5S)-6,6-Dimethylbicyclo[3.1.1]hept-2-en-2-yl)butoxy)-4-phenyl-2H-chromen-2-one] | 1270 ± 180 | – | 112 | 111 ± 10.5 | – | 11.4 | – | – | – | – | –
CC(C)=CCC/C(C)=C/COc1ccc2c(-c3ccc(Br)cc3)cc(=O)oc2c1 [Compound 15a] | 8.8 ± 0.5 | – | 8.91 | 8.8 ± 0.7 | – | 1 | – | – | – | – | –
CC1(C)C2CC=C(COc3ccc4c(-c5ccc(Br)cc5)cc(=O)oc4c3)C1C2 (centres unmarked) [Compound 15b] | 46.6 ± 8.6 | – | – | – | – | 3 | 4.82 | 15.1 ± 1.1 | – | – | –
CC1(C)C2CC=C(COc3ccc4c(-c5ccc(Br)cc5)cc(=O)oc4c3)C1C2 (centres unmarked) [Compound 15c] | – | – | – | – | 90.8 ± 11 | 1.9 | 4.31 and 4.30 | 48.7 ± 7.6 | – | – | –
CC1(C)C2CC=C(CCOc3ccc4c(-c5ccc(Br)cc5)cc(=O)oc4c3)C1C2 (centres unmarked) [Compound 15d] | 17.2 ± 2.6 | – | > 20 | > 20 | – | <0.8 | 4.70 | – | – | – | –
CC1(C)[C@H]2CC=C(CCCOc3ccc4c(-c5ccc(Br)cc5)cc(=O)oc4c3)[C@@H]1C2 [Compound 15e, 4-(4-Bromophenyl)-7-(3-((1R,5S)-6,6-dimethylbicyclo[3.1.1]hept-2-en-2-yl)propoxy)-2H-chromen-2-one] | 12.5 ± 1.4 | – | > 12.6 | > 12.5 | – | <1 | 4.90 | – | – | – | –
CC1(C)[C@H]2CC=C(CCCCOc3ccc4c(-c5ccc(Br)cc5)cc(=O)oc4c3)[C@@H]1C2 [Compound 15f, 4-(4-Bromophenyl)-7-(4-((1R,5S)-6,6-dimethylbicyclo[3.1.1]hept-2-en-2-yl)butoxy)-2H-chromen-2-one] | 91.3 ± 9.2 | – | 9.55 | 9.5 ± 0.8 | – | – | – | – | – | – | –
O=c1cc(-c2ccc(Br)cc2)c2ccc(OCc3ccccc3)cc2o1 [Compound 15g] | 265 ± 29.5 | – | 83.2 | 84 ± 3 | – | 3.2 | – | – | – | – | –
CC(C)=CCC/C(C)=C/COc1ccc2c(-c3ccc(F)cc3)cc(=O)oc2c1 [Compound 16a] | 273 ± 16 | – | 47.9 | 47.4 ± 8 | – | 5.8 | – | – | – | – | –
CC1(C)C2CC=C(COc3ccc4c(-c5ccc(F)cc5)cc(=O)oc4c3)C1C2 (centres unmarked) [Compound 16b] | – | – | – | – | 297 ± 8.5 | 2.9 | 3.99 | 103 ± 7.1 | – | – | –
CC1(C)C2CC=C(COc3ccc4c(-c5ccc(F)cc5)cc(=O)oc4c3)C1C2 (centres unmarked) [Compound 16c] | – | – | – | – | 20.5 ± 4.9 | 1.4 | 4.84 | 14.3 ± 2.9 | – | – | –
CC1(C)[C@H]2CC=C(CCCOc3ccc4c(-c5ccc(F)cc5)cc(=O)oc4c3)[C@@H]1C2 [Compound 16e, 7-(3-((1R,5S)-6,6-Dimethylbicyclo[3.1.1]hept-2-en-2-yl)propoxy)-4-(4-fluorophenyl)-2H-chromen-2-one] | 996 ± 8.2 | – | 110 | 110 ± 10.4 | – | 9 | – | – | – | – | –
CC1(C)[C@H]2CC=C(CCCCOc3ccc4c(-c5ccc(F)cc5)cc(=O)oc4c3)[C@@H]1C2 [Compound 16f, 7-(4-((1R,5S)-6,6-Dimethylbicyclo[3.1.1]hept-2-en-2-yl)butoxy)-4-(4-fluorophenyl)-2H-chromen-2-one] | 109 ± 10.5 | – | 9.33 | 9 | – | 11.8 | – | 9.2 ± 1.1 | – | – | –
O=c1cc(-c2ccc(F)cc2)c2ccc(OCc3ccccc3)cc2o1 [Compound 16g, 7-(Benzyloxy)-4-(4-fluorophenyl)-2H-chromen-2-one] | 655 ± 29.7 | – | 692 | – | – | <0.9 | 3.20 | – | > 690 | – | –
COc1ccc(-c2cc(=O)oc3cc(OC/C=C(\C)CCC=C(C)C)ccc23)cc1 [Compound 17a] | 339 ± 26.3 | – | 58.9 | 58.3 ± 8.5 | – | 5.8 | 4.20 | – | – | – | –
COc1ccc(-c2cc(=O)oc3cc(OCC4=CCC5CC4C5(C)C)ccc23)cc1 (centres unmarked) [Compound 17b] | 12.4 ± 2.8 | – | > 12.6 | > 12 | – | <1 | 4.90 | – | – | – | –
COc1ccc(-c2cc(=O)oc3cc(OCC4=CCC5CC4C5(C)C)ccc23)cc1 (centres unmarked) [Compound 17c] | – | – | – | – | 14.7 ± 2.9 | <1 | < 4.8 and 4.80 | > 15 | – | – | –
COc1ccc(-c2cc(=O)oc3cc(OCCC4=CCC5CC4C5(C)C)ccc23)cc1 (centres unmarked) [Compound 17d] | 677 ± 22.9 | – | 64.6 | 64.1 ± 5.4 | – | 10.6 | – | – | – | – | –
COc1ccc(-c2cc(=O)oc3cc(OCCCC4=CC[C@H]5C[C@@H]4C5(C)C)ccc23)cc1 [Compound 17e, 7-(3-((1R,5S)-6,6-Dimethylbicyclo[3.1.1]hept-2-en-2-yl)propoxy)-4-(4-methoxyphenyl)-2H-chromen-2-one] | > 100 | – | – | – | – | – | – | – | – | 35.9 ± 5.7 | –
COc1ccc(-c2cc(=O)oc3cc(OCCCCC4=CC[C@H]5C[C@@H]4C5(C)C)ccc23)cc1 [Compound 17f, 7-(4-((1R,5S)-6,6-Dimethylbicyclo[3.1.1]hept-2-en-2-yl)butoxy)-4-(4-methoxyphenyl)-2H-chromen-2-one] | 117 ± 7 | – | > 12.6 | 10 | – | – | 4.97 | 10.8 ± 1 | – | – | –
COc1ccc(-c2cc(=O)oc3cc(OCc4ccccc4)ccc23)cc1 [Compound 17g] | 16.8 ± 3.2 | – | > 17 | > 17 | – | <1 | 4.80 | – | – | – | –
CC1(C)[C@H]2CC=C(CNc3ccc4c(-c5ccccc5)cc(=O)oc4c3)[C@@H]1C2 [Compound 21, 7-(((1R,5S)-6,6-Dimethylbicyclo[3.1.1]hept-2-en-2-yl)methylamino)-4-phenyl-2H-chromen-2-one] | 20.5 ± 1.4 | – | > 12.6 | > 13 | – | – | 4.90 | – | – | – | abrupt increase in cytotoxicity
CC1(C)[C@H]2CC=C(CCNc3ccc4c(-c5ccccc5)cc(=O)oc4c3)[C@@H]1C2 [Compound 22, 7-(2-((1R,5S)-6,6-Dimethylbicyclo[3.1.1]hept-2-en-2-yl)ethylamino)-4-phenyl-2H-chromen-2-one] | 480 ± 18.4 | – | 79.4 | 79.9 ± 7.4 | – | 6 | – | – | – | – | –
NC(=O)c1ncn([C@@H]2O[C@H](CO)[C@@H](O)[C@H]2O)n1 [Ribavirin, reference compound] | > 4000 | – | – | – | – | – | – | – | – | 80.1 ± 13.5 | –
